Experimental data reported in US20230310428A1, “EGFR INHIBITOR AND PREPARATION METHOD AND USE THEREOF” (HONGYUN BIOTECH CO., LTD., priority 2020, published 2023).
Like-named read-outs stand apart in the source and are kept apart here.

How the values were obtained:
Assay in all cases: Growth inhibitory activity of compounds on BaF3 cell lines stably transfected with kinase (MTS, 48 h)
Format in all cases: cell-based
[1] = biological target: T1, various mutants of kinase EGFR (BaF3 cell lines stably transfected with kinase) (Homo sapiens, UniProt P00533)
T1 construct: other: BaF3 cells stably transfected with EGFR Δ19Del; MTS, 48 h; other: BaF3 cell line stably transfected with EGFR Δ19Del
Summary of the method: (§1)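 OD at 490 nm after 1-4 h MTS/PES incubation gave growth inhibition relative to 0.1% DMSO negative and cell-free medium blank. Compounds: 8-point 1/3 dilution from 10 µM, 48 h, 37 °C. IC50 from inhibition curves; duplicates.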

[2] = biological target: T2, various mutants of kinase EGFR (BaF3 cell lines stably transfected with kinase) (Homo sapiens, UniProt P00533, C797S/L858R/T790M)
T2 construct: expressed in transfected cells; host or cells: BaF3
Summary of the method: as §1

[3] = biological target: T3, various mutants of kinase EGFR (BaF3 cell lines stably transfected with kinase) (Homo sapiens, UniProt P00533, L858R)
T3 construct: expressed in transfected cells; host or cells: BaF3
Summary of the method: as §1

[4] = biological target: T4, various mutants of kinase EGFR (BaF3 cell lines stably transfected with kinase) (Homo sapiens, UniProt P00533, L858R/T790M)
T4 construct: expressed in transfected cells; host or cells: BaF3
Summary of the method: as §1

[5] = biological target: T5, various mutants of kinase EGFR (BaF3 cell lines stably transfected with kinase) (Homo sapiens, UniProt P00533, T790M/C797S, form not given)
T5 construct: other: BaF3 cells stably transfected with EGFR Δ19Del/T790M/C797S; MTS, 48; other: BaF3 cell line stably transfected with EGFR Δ19Del/T790M/C7
Summary of the method: as §1

[6] = biological target: T6, various mutants of kinase EGFR (BaF3 cell lines stably transfected with kinase) (Homo sapiens, UniProt P00533, T790M, form not given)
T6 construct: other: BaF3 cells stably transfected with EGFR Δ19Del/T790M; MTS, 48 h; other: BaF3 cell line stably transfected with EGFR Δ19Del/T790M; MTS, 48
Summary of the method: as §1

[7] = BaF3 cells stably transfected with EGFR Δ19Del, read-out: IC50, growth inhibition, Δ19Del
[8] = BaF3 cells stably transfected with EGFR L858R/T790M/C797S, read-out: IC50, growth inhibition, L858R/T790M/C797S
[9] = BaF3 cells stably transfected with EGFR L858R, read-out: IC50, growth inhibition, L858R
[10] = BaF3 cells stably transfected with EGFR L858R/T790M, read-out: IC50, growth inhibition, L858R/T790M
[11] = BaF3 cells stably transfected with EGFR Δ19Del/T790M/C797S, read-out: IC50, growth inhibition, Δ19Del/T790M/C797S
[12] = BaF3 cells stably transfected with EGFR Δ19Del/T790M, read-out: IC50, growth inhibition, Δ19Del/T790M
[13] = BaF3 cell line stably transfected with EGFR Δ19Del, read-out: Δ19Del growth inhibitory activity IC50
[14] = BaF3 cell line stably transfected with EGFR L858R/T790M/C797S, read-out: L858R/T790M/ C797S growth inhibitory activity IC50
[15] = BaF3 cell line stably transfected with EGFR L858R, read-out: L858R growth inhibitory activity IC50
[16] = BaF3 cell line stably transfected with EGFR L858R/T790M, read-out: L858R/ T790M growth inhibitory activity IC50
[17] = BaF3 cell line stably transfected with EGFR Δ19Del/T790M/C797S, read-out: Δ19Del/T790M/ C797S growth inhibitory activity IC50
[18] = BaF3 cell line stably transfected with EGFR Δ19Del/T790M, read-out: Δ19Del/ T790M growth inhibitory activity IC50

T3 sequence (P00533 25-1210 L858R): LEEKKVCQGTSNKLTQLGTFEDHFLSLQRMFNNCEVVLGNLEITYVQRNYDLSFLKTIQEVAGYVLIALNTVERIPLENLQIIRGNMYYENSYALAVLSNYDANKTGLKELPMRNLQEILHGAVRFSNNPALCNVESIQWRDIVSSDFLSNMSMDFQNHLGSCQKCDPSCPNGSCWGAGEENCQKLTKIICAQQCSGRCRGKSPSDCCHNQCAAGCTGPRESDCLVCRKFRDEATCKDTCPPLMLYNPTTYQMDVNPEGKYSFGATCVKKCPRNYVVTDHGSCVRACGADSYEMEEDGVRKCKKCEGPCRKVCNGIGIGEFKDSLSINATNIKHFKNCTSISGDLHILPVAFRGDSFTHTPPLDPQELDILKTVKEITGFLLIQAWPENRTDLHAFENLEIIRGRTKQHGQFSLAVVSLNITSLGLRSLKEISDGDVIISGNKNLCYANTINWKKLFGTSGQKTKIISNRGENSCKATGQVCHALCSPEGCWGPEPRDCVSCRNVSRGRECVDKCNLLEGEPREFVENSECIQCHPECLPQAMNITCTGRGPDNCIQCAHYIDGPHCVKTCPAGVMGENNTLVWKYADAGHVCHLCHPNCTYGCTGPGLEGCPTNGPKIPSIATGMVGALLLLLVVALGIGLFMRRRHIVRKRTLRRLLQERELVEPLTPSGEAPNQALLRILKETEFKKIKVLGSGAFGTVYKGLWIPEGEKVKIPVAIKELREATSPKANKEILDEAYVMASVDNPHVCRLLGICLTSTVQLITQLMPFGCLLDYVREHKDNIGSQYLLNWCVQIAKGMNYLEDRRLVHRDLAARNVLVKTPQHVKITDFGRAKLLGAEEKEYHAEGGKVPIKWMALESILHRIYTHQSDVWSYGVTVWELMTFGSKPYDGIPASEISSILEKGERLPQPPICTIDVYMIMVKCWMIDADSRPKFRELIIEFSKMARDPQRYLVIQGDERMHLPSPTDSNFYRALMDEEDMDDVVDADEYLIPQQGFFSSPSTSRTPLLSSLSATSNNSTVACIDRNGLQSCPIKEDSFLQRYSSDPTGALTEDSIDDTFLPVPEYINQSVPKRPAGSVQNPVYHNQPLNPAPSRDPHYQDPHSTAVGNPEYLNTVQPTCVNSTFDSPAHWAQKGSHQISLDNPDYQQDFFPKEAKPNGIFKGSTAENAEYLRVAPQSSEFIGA
T6 sequence (P00533 with tags, fused parts or gaps DEL746-750/T790M, form open): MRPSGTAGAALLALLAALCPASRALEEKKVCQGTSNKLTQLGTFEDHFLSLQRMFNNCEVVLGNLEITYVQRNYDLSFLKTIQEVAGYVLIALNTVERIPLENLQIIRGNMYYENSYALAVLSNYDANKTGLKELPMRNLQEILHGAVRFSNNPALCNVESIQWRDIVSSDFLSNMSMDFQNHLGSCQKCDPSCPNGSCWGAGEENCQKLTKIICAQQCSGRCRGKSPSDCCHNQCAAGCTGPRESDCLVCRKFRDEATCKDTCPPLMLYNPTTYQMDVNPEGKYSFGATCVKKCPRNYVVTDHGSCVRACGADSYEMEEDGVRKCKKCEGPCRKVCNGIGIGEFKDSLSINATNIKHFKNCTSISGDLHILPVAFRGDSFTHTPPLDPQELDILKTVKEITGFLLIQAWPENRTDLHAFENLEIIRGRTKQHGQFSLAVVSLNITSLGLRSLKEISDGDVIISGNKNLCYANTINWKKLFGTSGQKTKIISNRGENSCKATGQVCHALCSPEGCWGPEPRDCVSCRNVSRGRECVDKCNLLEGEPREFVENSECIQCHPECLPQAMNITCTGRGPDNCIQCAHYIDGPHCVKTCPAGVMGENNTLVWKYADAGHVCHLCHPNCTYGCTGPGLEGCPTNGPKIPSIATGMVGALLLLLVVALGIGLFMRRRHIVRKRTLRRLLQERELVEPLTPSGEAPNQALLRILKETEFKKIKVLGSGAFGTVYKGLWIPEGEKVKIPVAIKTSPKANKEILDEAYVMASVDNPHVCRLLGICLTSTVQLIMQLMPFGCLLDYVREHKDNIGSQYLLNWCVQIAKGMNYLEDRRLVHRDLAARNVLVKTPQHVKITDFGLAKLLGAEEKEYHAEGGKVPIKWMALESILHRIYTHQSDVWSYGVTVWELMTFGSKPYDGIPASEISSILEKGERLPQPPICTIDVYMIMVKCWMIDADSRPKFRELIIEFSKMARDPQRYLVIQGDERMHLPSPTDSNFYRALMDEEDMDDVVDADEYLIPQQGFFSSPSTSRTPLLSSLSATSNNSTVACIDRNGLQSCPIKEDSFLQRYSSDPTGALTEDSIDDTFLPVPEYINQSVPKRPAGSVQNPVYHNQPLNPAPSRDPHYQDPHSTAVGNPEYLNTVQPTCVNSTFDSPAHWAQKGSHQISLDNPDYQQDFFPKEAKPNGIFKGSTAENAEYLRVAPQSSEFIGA
T1 sequence (P00533 with tags, fused parts or gaps DEL746-750): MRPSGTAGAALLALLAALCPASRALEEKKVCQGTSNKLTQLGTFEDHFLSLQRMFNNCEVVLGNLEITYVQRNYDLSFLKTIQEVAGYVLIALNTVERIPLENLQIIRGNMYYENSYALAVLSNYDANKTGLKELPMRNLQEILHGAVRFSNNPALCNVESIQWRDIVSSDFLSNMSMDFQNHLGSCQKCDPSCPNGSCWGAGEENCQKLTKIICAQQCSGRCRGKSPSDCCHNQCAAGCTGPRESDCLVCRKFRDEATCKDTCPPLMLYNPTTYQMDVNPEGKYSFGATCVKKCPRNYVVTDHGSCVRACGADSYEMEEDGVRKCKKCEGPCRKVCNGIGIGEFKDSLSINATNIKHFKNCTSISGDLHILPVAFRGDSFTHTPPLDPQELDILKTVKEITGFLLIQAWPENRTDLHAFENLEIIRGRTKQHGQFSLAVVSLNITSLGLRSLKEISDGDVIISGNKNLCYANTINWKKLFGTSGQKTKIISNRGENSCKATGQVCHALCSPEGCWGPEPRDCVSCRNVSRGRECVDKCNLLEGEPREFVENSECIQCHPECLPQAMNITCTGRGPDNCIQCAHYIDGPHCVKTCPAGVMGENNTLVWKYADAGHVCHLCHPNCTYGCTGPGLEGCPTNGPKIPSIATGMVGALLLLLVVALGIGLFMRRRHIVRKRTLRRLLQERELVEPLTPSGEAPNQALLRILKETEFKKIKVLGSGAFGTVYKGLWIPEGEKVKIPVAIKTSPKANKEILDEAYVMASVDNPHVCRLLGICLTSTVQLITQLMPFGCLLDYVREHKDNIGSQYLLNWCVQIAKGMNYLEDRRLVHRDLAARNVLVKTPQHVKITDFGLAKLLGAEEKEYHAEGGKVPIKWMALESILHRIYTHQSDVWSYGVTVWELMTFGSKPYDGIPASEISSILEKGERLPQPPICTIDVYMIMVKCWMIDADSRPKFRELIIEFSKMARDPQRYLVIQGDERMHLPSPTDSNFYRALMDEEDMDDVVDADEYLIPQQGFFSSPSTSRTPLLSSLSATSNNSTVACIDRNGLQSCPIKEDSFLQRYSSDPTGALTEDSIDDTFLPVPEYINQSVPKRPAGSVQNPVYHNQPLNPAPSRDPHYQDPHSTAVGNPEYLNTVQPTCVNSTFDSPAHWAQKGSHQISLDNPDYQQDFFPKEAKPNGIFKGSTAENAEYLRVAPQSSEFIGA
T2 sequence (P00533 25-1210 T790M/C797S/L858R): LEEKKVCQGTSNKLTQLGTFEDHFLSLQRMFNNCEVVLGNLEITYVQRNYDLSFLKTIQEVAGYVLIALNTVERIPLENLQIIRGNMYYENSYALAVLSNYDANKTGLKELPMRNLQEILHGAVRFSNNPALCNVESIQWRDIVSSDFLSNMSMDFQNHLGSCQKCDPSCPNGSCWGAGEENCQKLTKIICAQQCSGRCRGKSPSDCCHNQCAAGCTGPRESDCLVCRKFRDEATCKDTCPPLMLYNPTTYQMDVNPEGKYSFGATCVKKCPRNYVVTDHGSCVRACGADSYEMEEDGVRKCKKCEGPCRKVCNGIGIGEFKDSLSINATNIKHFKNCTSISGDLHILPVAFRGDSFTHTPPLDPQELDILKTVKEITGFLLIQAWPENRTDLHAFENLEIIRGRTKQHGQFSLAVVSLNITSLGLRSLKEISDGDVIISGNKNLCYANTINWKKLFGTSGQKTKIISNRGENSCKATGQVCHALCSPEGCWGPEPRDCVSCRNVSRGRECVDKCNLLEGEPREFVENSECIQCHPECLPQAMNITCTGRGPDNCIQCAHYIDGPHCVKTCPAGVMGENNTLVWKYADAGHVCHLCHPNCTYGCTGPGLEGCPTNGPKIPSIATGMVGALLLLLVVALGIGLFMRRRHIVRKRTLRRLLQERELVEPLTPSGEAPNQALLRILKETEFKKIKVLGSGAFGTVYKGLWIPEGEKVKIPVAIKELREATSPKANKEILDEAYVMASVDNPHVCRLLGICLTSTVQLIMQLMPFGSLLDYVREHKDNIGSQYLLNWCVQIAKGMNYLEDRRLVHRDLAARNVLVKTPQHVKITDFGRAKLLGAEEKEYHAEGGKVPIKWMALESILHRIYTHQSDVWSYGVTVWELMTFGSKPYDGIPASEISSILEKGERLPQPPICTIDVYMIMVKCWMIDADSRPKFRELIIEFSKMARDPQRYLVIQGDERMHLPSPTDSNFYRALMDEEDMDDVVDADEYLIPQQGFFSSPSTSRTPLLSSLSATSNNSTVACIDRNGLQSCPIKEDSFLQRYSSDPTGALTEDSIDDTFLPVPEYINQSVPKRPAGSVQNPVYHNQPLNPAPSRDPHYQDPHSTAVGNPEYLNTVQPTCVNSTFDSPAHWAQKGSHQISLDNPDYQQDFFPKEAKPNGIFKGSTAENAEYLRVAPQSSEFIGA

IC50 [1, 7]	IC50 [2, 8]	IC50 [3, 9]	IC50 [4, 10]	IC50 [5, 11]	IC50 [6, 12]	IC50 [1, 13]	IC50 [2, 14]	IC50 [3, 15]	IC50 [4, 16]	IC50 [5, 17]	IC50 [6, 18]	Structure (SMILES)
						50 to 500 nM	≤ 50 nM	≤ 50 nM	≤ 50 nM	≤ 50 nM	≤ 50 nM	CN1CCN(C2CCN(c3ccc(Nc4ncc(Br)c(Nc5ccc6nccnc6c5N(C)S(C)(=O)=O)n4)c(F)c3F)CC2)CC1 [Compound I-353]
						500 to 2500 nM	500 to 2500 nM	50 to 500 nM	50 to 500 nM	50 to 500 nM	500 to 2500 nM	CCc1cc(Nc2nc(Nc3ccc4nccnc4c3N(C)S(C)(=O)=O)c3[nH]ccc3n2)c(OC)cc1N1CCC(N2CCN(C)CC2)CC1 [II-1-20]
						50 to 500 nM	50 to 500 nM	50 to 500 nM	≤ 50 nM	50 to 500 nM	≤ 50 nM	CCc1cc(Nc2ncc(C(C)C)c(Nc3ccc4nccnc4c3N(C)S(C)(=O)=O)n2)c(OC)cc1N1CCN(C)CC1 [Compound I-329]
						500 to 2500 nM	≤ 50 nM	500 to 2500 nM	500 to 2500 nM	50 to 500 nM	500 to 2500 nM	Cc1cc(Nc2ncc(Br)c(Nc3ccc4nccnc4c3N(C)S(C)(=O)=O)n2)nn1C [Compound I-385]

The remaining lines, values behind:

Structure (SMILES)	IC50 [1, 7]	IC50 [2, 8]	IC50 [3, 9]	IC50 [4, 10]	IC50 [5, 11]	IC50 [6, 12]	IC50 [1, 13]	IC50 [2, 14]	IC50 [3, 15]	IC50 [4, 16]	IC50 [5, 17]	IC50 [6, 18]
CCc1cc(Nc2ncc(C)c(Nc3ccc4nccnc4c3N(C)S(C)(=O)=O)n2)c(OC)nc1N1CCC(N2CCN(C)CC2)CC1 [Compound I-278]	≤ 50 nM	≤ 50 nM	≤ 50 nM	≤ 50 nM	≤ 50 nM	≤ 50 nM						
CCc1cc(Nc2ncc(Br)c(Nc3ccc4nccnc4c3N(C)S(=O)(=O)C3CC3)n2)c(OC(F)(F)F)cc1N1CCC(N2CCN(C)CC2)CC1 [Compound I-106]	50 to 500 nM	50 to 500 nM	50 to 500 nM	50 to 500 nM	≤ 50 nM	≤ 50 nM						
CCS(=O)(=O)N(C)c1c(Nc2nc(Nc3cc(C)c(N4CCC(N5CCN(C)CC5)CC4)cc3OC)ncc2Br)ccc2nccnc12 [Compound I-99]	≤ 50 nM	≤ 50 nM	≤ 50 nM	≤ 50 nM	≤ 50 nM	≤ 50 nM						
CN1CCN(C(=O)c2cccc(Nc3ncc(Br)c(Nc4ccc5nccnc5c4N(C)S(C)(=O)=O)n3)c2)CC1 [Compound I-80]	50 to 500 nM	50 to 500 nM	50 to 500 nM	≤ 50 nM	500 to 2500 nM	50 to 500 nM						
C=Cc1cc(Nc2ncc(C(F)(F)F)c(Nc3ccc4nccnc4c3N(C)S(C)(=O)=O)n2)c(OC(F)(F)F)cc1N1CCC(N2CCN(C)CC2)CC1 [Compound I-202]	50 to 500 nM	50 to 500 nM	50 to 500 nM	≤ 50 nM	≤ 50 nM	≤ 50 nM						
CCc1cc(Nc2ncc(F)c(Nc3ccc4nccnc4c3N(C)S(=O)(=O)C3CC3)n2)c(OC(F)(F)F)cc1N1CCC(N2CCN(C)CC2)CC1 [Compound I-250]	50 to 500 nM	500 to 2500 nM	50 to 500 nM	50 to 500 nM	50 to 500 nM	500 to 2500 nM						
COc1cc(N2CCC(N3CCN(C)CC3)CC2)c(C(C)C)cc1Nc1ncc(Cl)c(Nc2ccc3nccnc3c2N(C)S(C)(=O)=O)n1 [Compound I-288]	50 to 500 nM	50 to 500 nM	≤ 50 nM	50 to 500 nM	50 to 500 nM	50 to 500 nM						
COc1cc(N2CCC(N3CCN(C)CC3)CC2)ccc1Nc1ncc(F)c(Nc2ccc3nccnc3c2N(C)S(=O)(=O)C2CC2)n1 [Compound I-247]	50 to 500 nM	500 to 2500 nM	50 to 500 nM	500 to 2500 nM	50 to 500 nM	500 to 2500 nM						
CCc1cc(Nc2ncc(Cl)c(Nc3ccc4nccnc4c3N(C)S(C)(=O)=O)n2)c(OC)cc1N1CCC(N(C)C)C1 (stereo not drawn) [Compound I-174]	≤ 50 nM	≤ 50 nM	≤ 50 nM	≤ 50 nM	≤ 50 nM	≤ 50 nM						
